Data reported in patent publication US20080248094A1 (NATIONAL RESEARCH COUNCIL OF CANADA, priority 2001, published 2008).
“And” between values parts separate entries of the source, which are not always exact repeats. Equal values may be shown once.

Columns and labels:
[1] = test system: bone marrow dendritic cells; format: cell-based, C57BL/6 mice
[2] = test system: IL-12 secretion from dendritic cells; format: cell-based, C57BL/6 mice
OVA = test system: OVA; set-up: species or system C57BL/6 mice; conditions: mouse, in vivo

lipopolysaccharide [LPS]
MTT (Absorbance) [1]: 0.564 Absorbance and 0.562 Absorbance | IL-12 [2]: 187.9 ng/mL and 182.7 ng/mL

OVA, no adjuvant: 15 μg ovalbumin (OVA) with no adjuvant
anti OVA antibody titres (OVA): <42
